The values that follow come from patent US20100240537A1, “Substituted 6-(alkylbenzylamino)purine derivatives for use as cytokinin receptor antagonists and preparations containing these derivatives” (priority 2007, published 2010).

Structures are written as SMILES. Like-named read-outs stand apart in the source and are kept apart here. Where only a bound is given, the exact number is not on record here.

The test system of experiment [1] is erytroid leukemia cell line K-562. Kind of experiment: Calcein AM cytotoxicity assay, K-562. It is filed as cell-based, human. As to conditions: Homo sapiens, K562, 72 hours. An excerpt:
(§1) Absence of toxic effects against mammalian (especially human) cell lines in a wide concentration range is one of the requirements on compounds intended for use in agriculture. Because toxic compounds negatively influence metabolic processes in cells, many standard cytotoxicity assays are based on measurement of metabolisation rate of various artificial substrates. Resulting product is then quantified e.g. by means of spectrometry. The assays can be easily modified for use in 96-well plates. For evaluation of cytotoxic effect of the novel substituted 6-(alkylbenzylamino)purine derivatives of this invention, a microtiter assay based on quantification of metabolisation of Calcein AM was used. The assay is widely used in drug screening programs and in chemosensitivity testing. In live cells, Calcein AM is enzymatically hydrolysed and accumulation of resulting calcein is manifested by green fluorescence.
(§2) The cells were maintained in Nunc/Corning 80 cm^2 plastic tissue culture flasks and cultured in cell culture medium (DMEM with 5 g/l glucose, 2 mM glutamine, 100 U/ml penicillin, 100 μg/ml streptomycin, 10% fetal calf serum and sodium bicarbonate).
(§3) The cell suspensions were prepared and diluted according to the particular cell type and the expected target cell density (10^4 cells per well based on cell growth characteristics) and pippetted (80 μl) into 96-well plates. Inoculates were allowed a pre-incubation period of 24 hours at 37° C., 100% humidity and 5% CO2 for stabilisation. Tested compounds were added in total volume of 20 μl of water at time zero. Usually, test compound was evaluated at six 3-fold dilutions. In routine testing, the highest concentration tested was 100 μM, the eventual changes depended on physico-chemical characteristics of the respective compound. All drug concentrations were tested in triplicates. Incubations of cells with the test compounds lasted for 72 hours at 37° C., in 5% CO2 atmosphere and 100% humidity. At the end of incubation period Calcein AM (Molecular Probes) in PBS was added into final concentration of 1 μg/ml. After another 1 hour of incubation fluorescence (FD) was measured with the Labsystem FIA Reader Fluoroscan Ascent (UK). Growth inhibition (GI) was estimated using the following equitation: GI=(mean FDdrug exposed wells−mean FDblank)/(mean FDcontrol wells−mean FDblank)×100%.

The next experiment deals with T1, AHK3 (Arabidopsis thaliana, UniProt Q9C5U1).
T1 construct: expressed in transfected cells; host or cells: Escherichia coli KMI001, plasmid pSTV28-AHK3
T1 sequence (Q9C5U1 1-1036): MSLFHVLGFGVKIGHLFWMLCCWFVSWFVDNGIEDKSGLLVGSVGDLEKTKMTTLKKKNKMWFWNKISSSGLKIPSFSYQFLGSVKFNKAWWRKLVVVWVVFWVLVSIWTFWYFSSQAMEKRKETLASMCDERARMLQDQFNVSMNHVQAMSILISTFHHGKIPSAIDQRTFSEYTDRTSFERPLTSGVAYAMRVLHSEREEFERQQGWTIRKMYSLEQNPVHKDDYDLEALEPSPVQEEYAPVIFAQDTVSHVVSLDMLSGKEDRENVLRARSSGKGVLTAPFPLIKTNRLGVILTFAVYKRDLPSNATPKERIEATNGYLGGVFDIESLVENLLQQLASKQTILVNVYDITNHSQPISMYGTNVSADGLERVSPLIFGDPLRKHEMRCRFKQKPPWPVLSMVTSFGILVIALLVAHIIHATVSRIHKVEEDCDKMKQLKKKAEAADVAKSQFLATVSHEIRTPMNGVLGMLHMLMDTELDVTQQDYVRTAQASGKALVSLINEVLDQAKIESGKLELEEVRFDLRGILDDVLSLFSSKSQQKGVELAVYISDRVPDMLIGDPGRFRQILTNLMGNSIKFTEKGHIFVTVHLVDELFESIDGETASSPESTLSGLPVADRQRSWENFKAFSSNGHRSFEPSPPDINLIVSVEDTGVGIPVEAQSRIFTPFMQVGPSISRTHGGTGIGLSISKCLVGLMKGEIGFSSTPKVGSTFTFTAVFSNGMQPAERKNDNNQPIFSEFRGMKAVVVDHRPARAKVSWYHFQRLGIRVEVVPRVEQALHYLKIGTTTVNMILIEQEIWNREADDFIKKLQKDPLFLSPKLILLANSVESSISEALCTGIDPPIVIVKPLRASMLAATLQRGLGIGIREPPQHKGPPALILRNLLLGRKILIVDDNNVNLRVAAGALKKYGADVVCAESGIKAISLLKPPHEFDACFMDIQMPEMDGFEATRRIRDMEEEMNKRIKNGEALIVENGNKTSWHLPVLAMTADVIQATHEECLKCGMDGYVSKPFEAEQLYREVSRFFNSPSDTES
The experiment can be described thus: Activation of cytokinin receptor AHK3 in E. coli KMI001 (β-galactosidase reporter). It is filed as cell-based. As to the method:
Escherichia coli strains KMI001 harbouring the plasmid pIN-III-AHK4 or pSTV28-AHK3 were grown overnight at 25° C. in M9 media enriched with 0.1% casamino acids to OD600˜1. The preculture was diluted 1:600 in 1 ml M9 medium containing 0.1% casamino acids and 1 μl stock solution of either the tested compound (10^−7 M−5×10^−5 M) or solvent control (DMSO, ethanol, methanol) were added. The cultures were further grown at 25° C. in microtiter plate, 200 μl per well. […] The cultures were centrifuged and 50 μl aliquots of the supernatant were transferred to microtiter plate containing 2 μl 50 mM 4-methyl umbelliferyl galactoside which was subsequently incubated for 1 h at 37° C. The reaction was stopped by adding 100 μl 0.2 M Na2CO3. Fluorescence was measured using a Fluoroscan Ascent (Labsystems, Finland) at the excitation and emission wavelengths of 365 and 460 nm, respectively. The OD600 of remaining culture was determined and β-galactosidase activity was calculated as nmol 4-methylumbelliferone×OD600^−1×h^−1.
The EC50 value, the compound concentration activating the receptor to 50%, was calculated from the obtained dose response curves. The compound functioning as cytokinin antagonists should not activate cytokinin signalling pathway. The values shown in Table 2 are means of three replicates and the entire test was repeated at least twice.

Experiment [2] concerns Human diploid fibroblasts SNF25. Kind of experiment: MTT viability assay on human diploid fibroblasts. Format: cell-based. As to conditions: Homo sapiens, Fibroblast; SNF25 passage 19, 72 hours; read-out: IC50 (reduction in mitochondrial activity, MTT). As to the method: MTT is a standard colorimetric assay for measurement of proliferation and survival of the cells. Yellow MTT is reduced into violet formazan in metabolically active cells. The amount of formazan is measured by spectrometry. Human diploid fibroblasts SNF25 (passage 19) were seeded in 96-well plate (5000 cells per well). After 6 hours, the cultivation medium (DMEM containing 5 g/l glucose, 2 mM glutamin, 100 U/ml penicillin, 100 μg/ml streptomycin and 10% fetal calf serum) was removed and fresh medium containing a test compound in concentration range of 0-100 μM was added. The concentration was adjusted in cases of compounds with limited solubility. Each concentration was tested in 5 replicates. MTT was added to the cells after 72 hours into final concentration of 0.5 mg/ml. Incubation time was 3 hours. Resulting MTT was disolved in DMSO and absorbance was measured. The cytotoxic effect was estimated as IC=(Awells with compounds/Acontrol wells)×100%.
A general note: Tetrazolium dyes change colour on reduction, which living cells bring about.

Experiment [3] deals with human diploid fibroblasts BJ. The experiment can be described thus: Calcein AM cytotoxicity assay, BJ. The conditions noted are these: Homo sapiens, Fibroblast, 72 hours. It is filed as cell-based.
Excerpt: as §1, §2, §3

[4] abbreviates: E. coli KMI001 pSTV28-AHK3, 28 h incubation, n.i. means without interaction, read-out: EC50 AHK3 (activation of cytokinin receptor).

One may read the GI50 as the concentration giving 50% growth inhibition. By EC50 is commonly meant the concentration needed to bring the measured effect to its halfway point. The term IC50 denotes the concentration that gives 50% inhibition. In the case of `Cc1cccc(CNc2ncnc3nc[nH]c23)c1O` [Compound 8, 6-(2-hydroxy-3-methylbenzylamino)purine], the GI50 in experiment [1] and in experiment [3] was above 50 µM in each case. The EC50 at AHK3 (setting [4]) was above 100 µM. Besides, the IC50 in experiment [2] is above 50 µM.

As to `c1ccc(CNc2ncnc3nc[nH]c23)cc1` [6-(benzylamino)purine], the GI50 in experiment [1] and in experiment [3] was above 100 µM throughout. Besides, the EC50 at AHK3 was 18.2 µM. Also, the IC50 in experiment [2] was above 100 µM.

In the case of `Cc1ccc(O)c(CNc2ncnc3nc[nH]c23)c1` [Compound 10, 6-(2-hydroxy-5-methylbenzylamino)purine], the GI50 in experiment [1] and in experiment [3] was above 100 µM in each case. Moreover, at AHK3 (setting [4]), the EC50 is above 100 µM. Moreover, the IC50 in experiment [2] is above 100 µM.
